Legend:
O-GlcNAcase = O-GlcNAcase (Homo sapiens (Human), UniProt O60502); assay: Assay for determination of KI values for inhibition of O-GlcNAcase activity; format: biochemical; settings: pNP-GlcNAc 0.5 mM, PBS buffer pH 7.4, 37° C., Dixon plots
Experimental: Experimental Procedure for Kinetic Analyses: Enzymatic reactions were carried out in PBS buffer (pH 7.4) using pNP-GlcNAc as a substrate (0.5 mM) and monitored continuously at 37° C. at 400 nm using a Cary 3E UV-VIS spectrophotometer equipped with a Peltier temperature controller. Reactions were pre-heated in a 500 μL quartz cuvette for approximately 5 minutes followed by addition of 10 μL enzyme via syringe (final enzyme concentration 0.002 mg/mL). Reaction velocities were determined by linear regression of the linear region of the reaction progress curve between the first and third minutes. An inhibitor concentration range of ⅕ to 5 times K1 was used in each case.
For example, the K1 values for inhibition of O-GlcNAcase shown in Table 4 were obtained for compounds 2, 4, and 6. All K1 values were determined using linear regression of a Dixon plots.

[1] = Stability on storage neat; format: physicochemical; settings: stored neat at 0° C. (7 d)
Experimental: The azide obtained as described above (200 mg, 0.81 mmol) was dissolved in 3:1 THF:H2O (5 mL) and triphenylphosphine (310 mg, 1.2 mmol) was added. The solution was then stirred overnight at room temperature. Concentration of the mixture followed by flash chromatography of the resultant residue on silica gel (MeOH:EtOAc 2:3) gave 130 mg (75% yield) of (3aR,5R,6S,7R,7aR)-5-(aminomethyl)-2-propyl-5,6,7,7a-tetrahydro-3aH-pyrano[3,2-d]thiazole-6,7-diol (51) as a colourless oil. […] (7 d). ^1H NMR (500 MHz, methanol-d4): δ 0.97 (t, 3H, J=7.4 Hz), 1.63-1.67 (m, 2H), 2.43-2.49 (m, 2H), 3.39 (ddd, 1H, J=2.5, 4.1, 9.0 Hz), 3.51 (dd, 1H, J=4.1, 9.5 Hz), 3.64 (dd, 1H, J=2.5, 12.5 Hz), 3.75 (dd, 1H, J=6.1, 12.5 Hz), 4.04 (dd, 1H, J=4.4, 4.5 Hz), 4.28 (m, 1H), 6.35 (d, 1H, J=7.0 Hz).

O-GlcNAcase, sequence (O60502 whole entry): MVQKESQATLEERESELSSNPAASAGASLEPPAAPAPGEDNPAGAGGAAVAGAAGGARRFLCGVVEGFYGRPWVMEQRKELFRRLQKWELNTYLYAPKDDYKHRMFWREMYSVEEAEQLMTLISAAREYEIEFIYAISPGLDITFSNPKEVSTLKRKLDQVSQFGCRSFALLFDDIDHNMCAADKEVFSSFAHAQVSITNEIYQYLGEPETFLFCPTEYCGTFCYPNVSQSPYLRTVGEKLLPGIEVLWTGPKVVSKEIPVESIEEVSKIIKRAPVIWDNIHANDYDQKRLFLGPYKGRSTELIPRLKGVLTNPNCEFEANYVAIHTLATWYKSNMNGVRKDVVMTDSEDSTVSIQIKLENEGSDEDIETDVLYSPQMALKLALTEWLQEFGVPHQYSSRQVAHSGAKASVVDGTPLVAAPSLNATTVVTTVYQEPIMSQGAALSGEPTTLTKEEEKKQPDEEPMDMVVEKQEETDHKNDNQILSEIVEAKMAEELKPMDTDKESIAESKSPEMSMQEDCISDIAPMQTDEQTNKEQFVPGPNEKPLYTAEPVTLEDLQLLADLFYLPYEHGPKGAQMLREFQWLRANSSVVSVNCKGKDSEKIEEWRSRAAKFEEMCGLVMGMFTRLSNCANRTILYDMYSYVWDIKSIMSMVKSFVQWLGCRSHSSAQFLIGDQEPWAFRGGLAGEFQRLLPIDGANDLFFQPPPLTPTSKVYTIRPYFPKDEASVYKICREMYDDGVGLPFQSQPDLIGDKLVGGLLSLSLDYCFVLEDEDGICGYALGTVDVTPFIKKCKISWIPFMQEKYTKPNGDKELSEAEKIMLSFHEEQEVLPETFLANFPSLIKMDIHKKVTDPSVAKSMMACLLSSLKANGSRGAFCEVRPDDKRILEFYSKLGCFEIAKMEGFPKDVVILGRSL

SMILES	Ki (O-GlcNAcase)	stability on storage [1]
OC[C@H]1O[C@@H]2SC(CF)=N[C@@H]2[C@@H](O)[C@@H]1O [Compound 2, (3aR,5R,6S,7R,7aR)-2-(fluoromethyl)-5-(hydroxymethyl)-5,6,7,7a-tetrahydro-3aH-pyrano[3,2-d]thiazole-6,7-diol]	10 µM	
OC[C@H]1O[C@@H]2SC(C(F)F)=N[C@@H]2[C@@H](O)[C@@H]1O [Compound 4, (3aR,5R,6S,7R,7aR)-2-(difluoromethyl)-5-(hydroxymethyl)-5,6,7,7a-tetrahydro-3aH-pyrano[3,2-d]thiazole-6,7-diol]	7.7 µM	
OC[C@H]1O[C@@H]2SC(C(F)(F)F)=N[C@@H]2[C@@H](O)[C@@H]1O [Compound 6, (3aR,5R,6S,7R,7aR)-5-(hydroxymethyl)-2-(trifluoromethyl)-5,6,7,7a-tetrahydro-3aH-pyrano[3,2-d]thiazole-6,7-diol]	5.6 µM	
CCCC1=N[C@@H]2[C@@H](O)[C@H](O)[C@@H](CN)O[C@@H]2S1 [Compound 51, (3aR,5R,6S,7R,7aR)-5-(aminomethyl)-2-propyl-5,6,7,7a-tetrahydro-3aH-pyrano[3,2-d]thiazole-6,7-diol]		decompose slowly with time
